Laboratory results from PubChem BioAssay (NCI).
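Growth conditions: 96-well plates. Treatment: test compound, 48 hours, 5 concentrations. Analysis: linear interpolation between bracketing concentrations; unreached endpoints set to highest concentration. The concentration for 50% growth inhibition is given as GI50. At the TGI there is no net growth.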

Key:
Test in all cases: inhibition of tumour cell growth, NCI panel, 48 h
786-0 renal = tested on: 786-0 renal
A498 renal = tested on: A498 renal
A549 NSCLC = tested on: A549 NSCLC
ACHN renal = tested on: ACHN renal
CAKI-1 renal = tested on: CAKI-1 renal
CCRF-CEM leukemia = tested on: CCRF-CEM leukemia
COLO 205 colon = tested on: COLO 205 colon
DLD-1 colon = tested on: DLD-1 colon
DMS 273 small cell lung = tested on: DMS 273 small cell lung
EKVX NSCLC = tested on: EKVX NSCLC
HCC-2998 colon = tested on: HCC-2998 colon
HCT-116 colon = tested on: HCT-116 colon
HCT-15 colon = tested on: HCT-15 colon
HL-60(TB) leukemia = tested on: HL-60(TB) leukemia
HOP-18 NSCLC = tested on: HOP-18 NSCLC
HOP-62 NSCLC = tested on: HOP-62 NSCLC
HT29 colon = tested on: HT29 colon
IGROV1 ovarian = tested on: IGROV1 ovarian
K-562 leukemia = tested on: K-562 leukemia
KM12 colon = tested on: KM12 colon
KM20L2 colon = tested on: KM20L2 colon
LOX IMVI melanoma = tested on: LOX IMVI melanoma
LXFL 529 NSCLC = tested on: LXFL 529 NSCLC
M14 melanoma = tested on: M14 melanoma
M19-MEL melanoma = tested on: M19-MEL melanoma
MALME-3M melanoma = tested on: MALME-3M melanoma
MOLT-4 leukemia = tested on: MOLT-4 leukemia
NCI-H226 lung = tested on: NCI-H226 lung
NCI-H23 lung = tested on: NCI-H23 lung
NCI-H460 lung = tested on: NCI-H460 lung
NCI-H522 lung = tested on: NCI-H522 lung
OVCAR-3 ovarian = tested on: OVCAR-3 ovarian
OVCAR-4 ovarian = tested on: OVCAR-4 ovarian
OVCAR-5 ovarian = tested on: OVCAR-5 ovarian
OVCAR-8 ovarian = tested on: OVCAR-8 ovarian
RPMI-8226 leukemia = tested on: RPMI-8226 leukemia
RXF 393 renal = tested on: RXF 393 renal
SF-268 CNS = tested on: SF-268 CNS
SF-295 CNS = tested on: SF-295 CNS
SF-539 CNS = tested on: SF-539 CNS
SK-MEL-2 melanoma = tested on: SK-MEL-2 melanoma
SK-MEL-28 melanoma = tested on: SK-MEL-28 melanoma
SK-MEL-5 melanoma = tested on: SK-MEL-5 melanoma
SK-OV-3 ovarian = tested on: SK-OV-3 ovarian
SN12C renal = tested on: SN12C renal
SNB-19 CNS = tested on: SNB-19 CNS
SNB-75 CNS = tested on: SNB-75 CNS
SNB-78 CNS = tested on: SNB-78 CNS
SW-620 colon = tested on: SW-620 colon
TK-10 renal = tested on: TK-10 renal
U251 CNS = tested on: U251 CNS
UACC-257 melanoma = tested on: UACC-257 melanoma
UACC-62 melanoma = tested on: UACC-62 melanoma
UO-31 renal = tested on: UO-31 renal

SMILES: NC1CCCCC1N.O=C([O-])c1cc(S(=O)(=O)Nc2cc(S(=O)(=O)[O-])cc3cc(S(=O)(=O)[O-])cc(O)c23)ccc1[O-].[Pt+4]
- GI50 (786-0 renal): > 100 µM
- TGI (786-0 renal): > 100 µM
- GI50 (A498 renal): > 100 µM
- TGI (A498 renal): > 100 µM
- GI50 (A549 NSCLC): 61.6 µM
- TGI (A549 NSCLC): > 100 µM
- GI50 (ACHN renal): > 100 µM
- TGI (ACHN renal): > 100 µM
- GI50 (CAKI-1 renal): > 100 µM
- TGI (CAKI-1 renal): > 100 µM
- GI50 (CCRF-CEM leukemia): > 100 µM
- TGI (CCRF-CEM leukemia): > 100 µM
- GI50 (COLO 205 colon): > 100 µM
- TGI (COLO 205 colon): > 100 µM
- GI50 (DLD-1 colon): > 100 µM
- TGI (DLD-1 colon): > 100 µM
- GI50 (DMS 273 small cell lung): > 100 µM
- TGI (DMS 273 small cell lung): > 100 µM
- GI50 (EKVX NSCLC): > 100 µM
- TGI (EKVX NSCLC): > 100 µM
- GI50 (HCC-2998 colon): > 100 µM
- TGI (HCC-2998 colon): > 100 µM
- GI50 (HCT-116 colon): > 100 µM
- TGI (HCT-116 colon): > 100 µM
- GI50 (HCT-15 colon): > 100 µM
- TGI (HCT-15 colon): > 100 µM
- GI50 (HL-60(TB) leukemia): 89.8 µM
- TGI (HL-60(TB) leukemia): > 100 µM
- GI50 (HOP-18 NSCLC): > 100 µM
- TGI (HOP-18 NSCLC): > 100 µM
- GI50 (HOP-62 NSCLC): > 100 µM
- TGI (HOP-62 NSCLC): > 100 µM
- GI50 (HT29 colon): > 100 µM
- TGI (HT29 colon): > 100 µM
- GI50 (IGROV1 ovarian): > 100 µM
- TGI (IGROV1 ovarian): > 100 µM
- GI50 (K-562 leukemia): > 100 µM
- TGI (K-562 leukemia): > 100 µM
- GI50 (KM12 colon): > 100 µM
- TGI (KM12 colon): > 100 µM
- GI50 (KM20L2 colon): > 100 µM
- TGI (KM20L2 colon): > 100 µM
- GI50 (LOX IMVI melanoma): > 100 µM
- TGI (LOX IMVI melanoma): > 100 µM
- GI50 (LXFL 529 NSCLC): > 100 µM
- TGI (LXFL 529 NSCLC): > 100 µM
- GI50 (M14 melanoma): > 100 µM
- TGI (M14 melanoma): > 100 µM
- GI50 (M19-MEL melanoma): > 100 µM
- TGI (M19-MEL melanoma): > 100 µM
- GI50 (MALME-3M melanoma): 63.5 µM
- TGI (MALME-3M melanoma): > 100 µM
- GI50 (MOLT-4 leukemia): > 100 µM
- TGI (MOLT-4 leukemia): > 100 µM
- GI50 (NCI-H226 lung): > 100 µM
- TGI (NCI-H226 lung): > 100 µM
- GI50 (NCI-H23 lung): > 100 µM
- TGI (NCI-H23 lung): > 100 µM
- GI50 (NCI-H460 lung): 41.8 µM
- TGI (NCI-H460 lung): > 100 µM
- GI50 (NCI-H522 lung): > 100 µM
- TGI (NCI-H522 lung): > 100 µM
- GI50 (OVCAR-3 ovarian): > 100 µM
- TGI (OVCAR-3 ovarian): > 100 µM
- GI50 (OVCAR-4 ovarian): > 100 µM
- TGI (OVCAR-4 ovarian): > 100 µM
- GI50 (OVCAR-5 ovarian): > 100 µM
- TGI (OVCAR-5 ovarian): > 100 µM
- GI50 (OVCAR-8 ovarian): > 100 µM
- TGI (OVCAR-8 ovarian): > 100 µM
- GI50 (RPMI-8226 leukemia): 89.5 µM
- TGI (RPMI-8226 leukemia): > 100 µM
- GI50 (RXF 393 renal): > 100 µM
- TGI (RXF 393 renal): > 100 µM
- GI50 (SF-268 CNS): > 100 µM
- TGI (SF-268 CNS): > 100 µM
- GI50 (SF-295 CNS): > 100 µM
- TGI (SF-295 CNS): > 100 µM
- GI50 (SF-539 CNS): > 100 µM
- TGI (SF-539 CNS): > 100 µM
- GI50 (SK-MEL-2 melanoma): > 100 µM
- TGI (SK-MEL-2 melanoma): > 100 µM
- GI50 (SK-MEL-28 melanoma): > 100 µM
- TGI (SK-MEL-28 melanoma): > 100 µM
- GI50 (SK-MEL-5 melanoma): 88.7 µM
- TGI (SK-MEL-5 melanoma): > 100 µM
- GI50 (SK-OV-3 ovarian): > 100 µM
- TGI (SK-OV-3 ovarian): > 100 µM
- GI50 (SN12C renal): > 100 µM
- TGI (SN12C renal): > 100 µM
- GI50 (SNB-19 CNS): > 100 µM
- TGI (SNB-19 CNS): > 100 µM
- GI50 (SNB-75 CNS): > 100 µM
- TGI (SNB-75 CNS): > 100 µM
- GI50 (SNB-78 CNS): > 100 µM
- TGI (SNB-78 CNS): > 100 µM
- GI50 (SW-620 colon): > 100 µM
- TGI (SW-620 colon): > 100 µM
- GI50 (TK-10 renal): > 100 µM
- TGI (TK-10 renal): > 100 µM
- GI50 (U251 CNS): > 100 µM
- TGI (U251 CNS): > 100 µM
- GI50 (UACC-257 melanoma): > 100 µM
- TGI (UACC-257 melanoma): > 100 µM
- GI50 (UACC-62 melanoma): > 100 µM
- TGI (UACC-62 melanoma): > 100 µM
- GI50 (UO-31 renal): > 100 µM
- TGI (UO-31 renal): > 100 µM
